# Experimental data as given in PMC7566095 (iScience, 2020).
# Bridge positions count the residues as written; N and C are the ends. Ends that are not written are not given here.
# Legend:
# Parameters in all cases: species or system HIV
# [1] = system: mAb F240 binding to MN gp41 protein; assay: Competition peptide ELISA, mAb F240; conditions: peptide 4-fold serial dilutions beginning at 20 ug/mL
# [2] = system: mAb 240D binding to MN gp41 protein; assay: Competition peptide ELISA, mAb 240D; conditions: peptide 4-fold serial dilutions beginning at 20 ug/mL
# [3] = system: mAb 447-52D binding to SF162 gp120 protein; assay: Competition peptide ELISA, mAb 447-52D; conditions: for competition of peptide for binding of mAb 447-52D to gp120 protein: peptide 4-fold serial dilutions beginning at 20 ug/mL
# [4] = system: mAb 257D binding to SF162 gp120 protein; assay: Competition peptide ELISA, mAb 257D
# [5] = competition ELISA, SF162 gp120 coated
# [6] = competition ELISA, SF162 gp120 coated, unpaired t test, three replicate experiments
sequence,measurement,setting,value
LLGIWGCSGKLICTTNVP (disulfide 7-13 (inferred)) [wild-type gp41 peptide],competition of peptide for binding of mAb F240 to gp41 protein,[1],competed for binding
same,competition of peptide for binding of mAb 240D to gp41 protein,[2],competed for binding
RKSIHIGPGRAFY [wild-type V3 peptide],competition of peptide for binding of mAb 447-52D to gp120 protein,[3],competed for binding
same,competition of peptide for binding of mAb 257D to gp120 protein,[4]; peptide 4-fold serial dilutions beginning at 20 ug/mL,competed for binding
RKSIHIGPGWAFY [R315W],"fold increase in IC50 versus wild-type V3 peptide, mAb 447-52D",[3]; [5],72 fold
same,"fold increase in IC50 versus wild-type V3 peptide, mAb 257D",[4]; [5],5 fold
RTSIHIGPGRAFY [K305T],"IC50 of peptide compared with wild-type V3 peptide, mAb 447-52D",[3]; [6],did not yield IC50 values that were significantly different from the wild-type peptide
LLGIWGDSGKLICTTNVP [C598D],competition of peptide for binding of mAb F240 to gp41 protein,[1],no longer competes for binding
same,competition of peptide for binding of mAb 240D to gp41 protein,[2],no longer competes for binding
EKSIHIGPGRAFY [R304E],"IC50 of peptide compared with wild-type V3 peptide, mAb 257D",[4]; [6],did not yield IC50 values that were significantly different from the wild-type peptide
RKSIHIGPGRATY [F317T],competition of peptide for binding of mAb 447-52D to gp120 protein,[3],improved binding above wild-type levels
